Where two headings read alike, the source gives them in different places.
Legend:
[1] = tested on: BTX-modified Na+ channels in GH3 cells; assay type: cell-based, rat; details: for enhancement of the inactivation of BTX-modified Na+ channels: benzocaine derivatives
[2] = tested on: BTX-modified Na+ channels in GH3 cells; experiment: Whole-cell voltage clamp, voltage-ramp protocol; assay type: cell-based, rat; details: for effect of external Na+ ions on binding: 0 vs 130 mM external Na+; for voltage dependence of block / IC50: voltage ramp; for voltage dependence of block: quasi steady state; for change of binding after CT treatment: 0.5 mM CT 5 min; for IC50: no external Na+
[3] = tested on: unmodified Na+ channels in GH3 cells; experiment: Whole-cell voltage clamp, tonic and use-dependent block of normal Na+ currents; assay type: cell-based, rat; details: 1 mM; for tonic block of normal Na+ currents: +30 mV test pulse, prepulse -130 mV; for use-dependent block of normal Na+ currents: repetitive +30 mV pulses, 25 ms at 5 Hz
[4] = Solubility in test solution; details: external solution, from 500 mM DMSO stock

CCOC(=O)c1ccc(O)cc1 [ethyl 4-hydroxy benzoate]
enhancement of the inactivation of BTX-modified Na+ channels [1]: acted more or less as benzocaine

COC(=O)c1ccc(N)cc1 [methyl 4-amino benzoate]
enhancement of the inactivation of BTX-modified Na+ channels [1]: acted more or less as benzocaine

CCOC(=O)c1ccc(N(C)C)cc1 [N-dimethyl benzocaine, ethyl p-dimethylamino-benzoate]
enhancement of the inactivation of BTX-modified Na+ channels [1]: failed to enhance the inactivation | effect of external Na+ ions on binding [2]: no effect | voltage dependence of block [2]: enhanced by depolarization | left shift in steady-state inactivation [3]: ~ 10 mV | tonic block of normal Na+ currents [3]: produces a tonic block | use-dependent block of normal Na+ currents [3]: elicits additional use-dependent block | solubility [4]: could not reliably dissolve N-dimethyl benzocaine at 3 mM even after heating

batrachotoxin [BTX]
activation threshold, more negative than that of normal Na+ currents ([2]; BTX-modified channels, threshold near -90 mV): ~ 50 mV

COC(=O)[C@H]1[C@@H](OC(=O)c2ccccc2)C[C@@H]2CC[C@H]1N2C [cocaine, (-)-cocaine]
change of binding after CT treatment ([2]; from 0 to +50 mV, 0.1 or 0.3 mM): small reduction | change of binding after CT treatment ([2]; from -50 mV to -30 mV, 0.1 or 0.3 mM): slightly enhanced | voltage dependence of block [2]: significantly stronger at +50 mV than at -50 mV

CCOC(=O)c1cccc(O)c1 [ethyl 3-hydroxy benzoate]
enhancement of the inactivation of BTX-modified Na+ channels [1]: acted more or less as benzocaine

CCOC(=O)c1cccc(N)c1 [tricaine]
enhancement of the inactivation of BTX-modified Na+ channels [1]: acted more or less as benzocaine

CCOC(=O)c1ccc(N)cc1 [benzocaine, Benzocaine]
IC50 ([1]; read-out: concentration that inhibits 50% of BTX-modified Na+ currents (IC50), at -70 mV, GH3 cells): 200 µM | effect of external Na+ ions on binding [2]: do not reduce benzocaine binding | change of binding after CT treatment ([2]; measured from -75 mV to +50 mV, 1 and 3 mM): greatly reduced | shift of V0.5 toward the depolarizing direction ([2]; 1 mM benzocaine on BTX-modified channels, 130 mM external Na+): about 20 mV | IC50 ([2]; at +50 mV): ~1200 µM | IC50 ([2]; at -50 mV): 300 µM | voltage dependence of block [2]: greater at the resting membrane potential (-50 to -90 mV) than at positive potentials (0 to +50 mV) | left shift in steady-state inactivation [3]: about 20 mV | tonic block of normal Na+ currents [3]: produces a tonic block | use-dependent block of normal Na+ currents [3]: fails to elicit additional use-dependent block | solubility [4]: poor solubility of benzocaine at concentrations higher than 3 mM

From article PMC2216842 (The Journal of General Physiology, 1994)
